Results published in patent US5591743A, “3,5-dioxo-(2H,4H)-1,2,4-triazine derivatives as 5HT1A ligands” (Pierre Fabre Medicament, priority 1993, dated 1997).
Like-named read-outs stand apart in the source and are kept apart here.

Legend:
5-HT1A receptor = molecular target: T1, 5-HT1A receptor (Rattus norvegicus, UniProt P19327); assay: Affinity for the receptor 5-HT1A: displacement of [3H]8-OH-DPAT in rat cerebral cortex; format: binding; settings: [3H]8-OH-DPAT 0.2 nM, 23° C., 30 minutes, average of 3 to 5 experiments, read-out: pKi (affinity for the receptor 5-HT1A) (converted)
T1 construct: The brain is dissected and the cortex is homogenized in 20 volumes of Tris-HCl buffer; from tissue; host or cells: rat cerebral cortex homogenate
T1 sequence (P19327 1-422): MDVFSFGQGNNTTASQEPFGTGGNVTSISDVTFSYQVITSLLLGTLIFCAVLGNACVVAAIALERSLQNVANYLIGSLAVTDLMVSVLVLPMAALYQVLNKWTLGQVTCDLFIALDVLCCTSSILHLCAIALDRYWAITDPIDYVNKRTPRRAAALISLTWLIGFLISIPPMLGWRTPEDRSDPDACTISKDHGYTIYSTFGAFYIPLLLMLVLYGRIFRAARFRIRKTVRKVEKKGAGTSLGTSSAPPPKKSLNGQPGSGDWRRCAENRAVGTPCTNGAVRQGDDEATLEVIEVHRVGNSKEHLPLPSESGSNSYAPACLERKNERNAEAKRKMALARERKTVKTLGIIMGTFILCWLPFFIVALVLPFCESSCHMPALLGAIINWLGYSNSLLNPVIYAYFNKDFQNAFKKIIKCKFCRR
Method: Thus, they were the object of a study relating to their affinity for serotoninergic receptors such as 5-HT1A.
The study of the bonding to the receptor 5-HT1A is carried out in the manner described by Sleight and Peroutka (Naunyn-Schmiedebergs Arch. Pharmacol. 343:106-116, 1991). For these experiments, rat cerebral cortices are used. The brain is dissected and the cortex is homogenized in 20 volumes of Tris-HCl buffer (50 mM, pH 7.4 at 25° C.) kept at 4° C. The homogenate is centrifuged at 39000 g for 10 minutes, the final product is suspended in the same volume of buffer and centrifuged again. After being again placed in suspension under the same conditions, the homogenate is incubated for 10 minutes at 37° C. and then centrifuged again. The final product is suspended in 80 volumes of reaction buffer containing pargyline (10^- 5M), CaCl2 (4 mM) and ascorbic acid (0.1%) in Tris-HCl (50 mM, pH 7.4 at 25° C.). The final concentration of tissue in the incubation medium is 10 mg/tube.
In the saturation experiments, the reaction tubes contain 0.1 ml of different concentrations of [^3 H]8--OH--DPAT (between 0.06 and 8 nM), 0.1 ml of reaction buffer 5-HT (10^-5 M, in order to determine the non-specific bond) and 0.8 ml of tissue.
The displacement experiments are carried out in the manner described by Sleight and Peroutka (Naunyn-Schmiedebergs Arch. Pharmacol. 343:106-116, 1991). All the dilutions of products to be studied are prepared in the reaction buffer. The reaction tubes contain 0.1 ml of [^3 H]8-OH-DPAT (0.2 nM), 0.1 ml of product to be tested 6-7 concentrations (successive dilutions to 1/10) and 0.8 ml of tissue. […] The radioactivity collected on the filter is analyzed in liquid scintillation by adding 4 ml of scintillating liquid (Emulsifier Safe, Packard). All the experiments are carried out in triplicate and repeated at least 3 times.
The dissociation constant (KD) and the maximum number of bond sites (Bmax) for the radioligand are estimated on the basis of the saturation experiments using the non-linear regression program EBDA/LIGAND (Biosoft) (Munson and Rodbard: Anal. Biochem. 107:220-239, 1980). The affinity constants (Ki) of the reference products are estimated on the basis of the displacement experiments using the EBDA/LIGAND non-linear regression program. […] The data of the displacement experiments are analyzed with the one-site and two-site models respectively and the calculated F makes it possible to determine whether the two-site model is more representative of the data obtained than the one-site model. The values of pKi are given in the form of the average ±SEM of 3 to 5 experiments.

[1] = molecular target: T2, serotoninergic receptors of type 5-HT1A (Rattus norvegicus, UniProt P19327); assay: 5-HT syndrome (flat body posture, lower-lip retraction, fore-paw treading); format: in vivo; settings: ip, male Sprague-Dawley rat, i.p.
T2 construct: carried out on the male rat (Sprague-Dawley); from tissue; host or cells: whole living male Sprague-Dawley rat (in vivo test)
T2 sequence (P19327 1-422): T1 sequence (P19327 1-422)
Method: The experiments of the evaluation of the 5-HT syndrome are carried out on the male rat (Sprague-Dawley) by the method described by F. C. Colpaert et al. (Drug. Dev. Res. 26:21-48, 1992).

[2] = FBP, read-out: ED50 FBP (flat body posture)
[3] = FPT, read-out: ED50 FPT (reciprocal fore-paw treading)
[4] = LLR, read-out: ED50 LLR (lower-lip retraction)

Cn1nc(NCCCNCC2COc3ccccc3O2)c(=O)n(C)c1=O (stereo not shown) [Compound 10, 2,4-dimethyl-3,5-dioxo-(2H, 4H)-6-(3-(1,4-benzodioxan-2 ylmethylamino)propylamino)-1,2,4-triazine]
Ki (5-HT1A receptor): 3.8 nM

Cn1nc(NCCCCNCC2COc3ccccc3O2)c(=O)n(C)c1=O (stereo not shown) [Compound 9, 2,4-dimethyl-3,5-dioxo-(2H,4H)-6-(4-(1,4-benzodioxan-2 ylmethylamino)butylamino)-1,2,4-triazine]
Ki (5-HT1A receptor): 2.69 nM

COc1ccccc1N1CCN(CCCCNc2nn(C)c(=O)n(C)c2=O)CC1 [Compound 3, 2,4-dimethyl-3,5-dioxo-(2H,4H)-6-(4-(4-(2-methoxyphenyl)piperazino)butylamino)-1,2,4-triazine]
Ki (5-HT1A receptor): 0.617 nM

Cn1nc(NCCCN2CCN(c3cccc(C(F)(F)F)c3)CC2)c(=O)n(C)c1=O [Compound 6, 2,4-dimethyl-3,5-dioxo-(2H,4H)-6-(3-(4-(3-trifluoromethylphenyl)piperazino)propylamino)-1,2,4-triazine]
Ki (5-HT1A receptor): 16.2 nM

CCCCn1c(=O)[nH]nc(NCCCCN2CCN(c3cccc(C(F)(F)F)c3)CC2)c1=O [Compound 11, 4-butyl-3,5-dioxo-(2H, 4H)-6-(4-(4-(3-trifluoromethylphenyl)piperazino)butylamino)-1,2,4-triazine]
Ki (5-HT1A receptor): 12.6 nM

O=C1CC2(CCCC2)CC(=O)N1CCCCN1CCN(c2ncccn2)CC1 [Buspirone, reference compound]
ED50 [1, 2]: 5 mg/kg
ED50 [1, 3]: > 40 mg/kg
ED50 [1, 4]: 1.25 mg/kg

Cn1nc(NCCCCN2CCN(c3cccc(Cl)c3)CC2)c(=O)n(C)c1=O [Compound 2, 2,4-dimethyl-3,5-dioxo-(2H,4H)-6-(4(4-(3-chlorophenyl)piperazino)butylamino)-1,2,4-triazine]
Ki (5-HT1A receptor): 0.398 nM
ED50 [1, 2]: 0.31 mg/kg
ED50 [1, 3]: 40 mg/kg
ED50 [1, 4]: 0.31 mg/kg

Cn1nc(NCCCCN2CCN(c3cccc(C(F)(F)F)c3)CC2)c(=O)n(C)c1=O [Compound 1, 2,4-dimethyl-3,5-dioxo-(2H, 4H)-6-(4-(4-(3-trifluoromethylphenyl)piperazino)butylamino)-1,2,4-triazine]
Ki (5-HT1A receptor): 0.316 nM
ED50 [1, 2]: 0.31 mg/kg
ED50 [1, 3]: 0.31 mg/kg
ED50 [1, 4]: 0.31 mg/kg
